According to patent US7829665B2 (priority 2005, dated 2010):
Like-named read-outs stand apart in the source and are kept apart here.

How the values were obtained:
[1] = system: HCV sub-genomic replicon in GS4.3 cells (HuH-7 hepatoma cells); assay: Quantitation by ELISA of Neomycin phosphotransferase II (NPTII) in the HCV sub-genomic replicon, GS4.3; assay type: cell-based, hepatitis C virus; details: Hepatitis C virus
Experimental: The HCV sub-genomic replicon (1377/NS3-3′, accession No. AJ242652), stably maintained in HuH-7 hepatoma cells, was created by Lohmann et al. Science 285: 110-113 (1999). The replicon-containing cell culture, designated GS4.3, was obtained from Dr. Christoph Seeger of the Institute for Cancer Research, Fox Chase Cancer Center, Philadelphia, Pa.
GS4.3 cells were maintained at 37° C., 5% CO2, in DMEM (Gibco 11965-092) supplemented with L-glutamine 200 mM (100×) (Gibco25030-081), non-essential amino acids (NEAA) (Biowhittaker 13-114E), heat-inactivated (HI) Fetal Bovine Serum (FBS) (Hyclone SH3007.03) and 750 μg/ml geneticin (G418) (Gibco 10131-035). Cells were sub-divided 1:3 or 4 every 2-3 days.
24 h prior to the assay, GS4.3 cells were collected, counted, and plated in 96-well plates (Costar 3585) at 7500 cells/well in 100 μl standard maintenance medium (above) and incubated in the conditions above. To initiate the assay, culture medium was removed, cells were washed once with PBS (Gibco 10010-023) and 90 μl Assay Medium (DMEM, L-glutamine, NEAA, 10% HI FBS, no G418) was added. Inhibitors were made as a 10× stock in Assay Medium, (3-fold dilutions from 10 μM to 56 pM final concentration, final DMSO concentration 1%), 10 μl were added to duplicate wells, plates were rocked to mix, and incubated as above for 72 h.
An NPTII Elisa kit was obtained from AGDIA, Inc. (Compound direct ELISA test system for Neomycin Phosphotransferase II, PSP 73000/4800). Manufacturer's instructions were followed, with some modifications. 10×PEB-1 lysis buffer was made up to include 500 μM PMSF (Sigma P7626, 50 mM stock in isopropanol). After 72 h incubation, cells were washed once with PBS and 150 μl PEB-1 with PMSF was added per well. Plates were agitated vigorously for 15 minutes, room temperature, then frozen at −70° C. Plates were thawed, lysates were mixed thoroughly, and 100 μl were applied to an NPTII Elisa plate. A standard curve was made. Lysate from DMSO-treated control cells was pooled, serially diluted with PEB-1 with PMSF, and applied to duplicate wells of the ELISA plate, in a range of initial lysate amount of 150 ul-2.5 ul. In addition, 100 μl buffer alone was applied in duplicate as a blank. Plates were sealed and gently agitated at room temperature for 2 h. Following capture incubation, the plates were washed 5×300 μl with PBS-T (0.5% Tween-20, PBS-T was supplied in the ELISA kit). For detection, a 1× dilution of enzyme conjugate diluent MRS-2 (5×) was made in PBS-T, into which 1:100 dilutions of enzyme conjugates A and B were added, as per instructions. Plates were resealed, and incubated with agitation, covered, room temperature, for 2 h. The washing was then repeated and 100 μl of room temperature TMB substrate was added. After approximately 30 minutes incubation (room temperature, agitation, covered), the reaction was stopped with 50 μl 3M sulfuric acid. Plates were read at 450 nm on a Molecular Devices Versamax plate reader.
Inhibitor effect was expressed as a percentage of DMSO-treated control signal, and inhibition curves were calculated using a 4-parameter equation: y=A+((B−A)/(1+((C/x)^D))), where C is half-maximal activity or EC50.

[2] = target: T1, full-length NS3/NS4A-2 (HCV NS3 protease) (Hepatitis C virus genotype 1a, UniProt P27958); assay: NS3-NS4 protease assay / NS3 inhibition assay (RETS1 substrate, fluorescence kinetic read); assay type: biochemical; details: read-out: NS3-NS4 IC50
T1 construct: Recombinant E. coli or Baculovirus full-length NS3 was diluted to 3.33 μM with assay buffer; made in house; host or cells: E. coli or baculovirus (BV) expression system
Outline: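 Ki values come from IC50 fits corrected via Ki=IC50/(1+[S]/Km), with Km 2.03 μM for E. coli and 1.74 μM for baculovirus full-length NS3. Enzyme (2 or 3 nM NS3, respectively, complexed with NS4A-2) sat with compound, top concentration 50 microM, for 10 min at room temperature. Cleavage of RETS1 (8 μM working solution) was then followed by fluorescence (335/495 nm) over 30 min.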

[3] = Huh-7, GS4.3 cells, 72 h incubation, NPTII ELISA, read-out: Replicon EC50
[4] = recombinant E. coli or Baculovirus full-length NS3 with NS4A-2

T1 sequence (P27958 1027-1657): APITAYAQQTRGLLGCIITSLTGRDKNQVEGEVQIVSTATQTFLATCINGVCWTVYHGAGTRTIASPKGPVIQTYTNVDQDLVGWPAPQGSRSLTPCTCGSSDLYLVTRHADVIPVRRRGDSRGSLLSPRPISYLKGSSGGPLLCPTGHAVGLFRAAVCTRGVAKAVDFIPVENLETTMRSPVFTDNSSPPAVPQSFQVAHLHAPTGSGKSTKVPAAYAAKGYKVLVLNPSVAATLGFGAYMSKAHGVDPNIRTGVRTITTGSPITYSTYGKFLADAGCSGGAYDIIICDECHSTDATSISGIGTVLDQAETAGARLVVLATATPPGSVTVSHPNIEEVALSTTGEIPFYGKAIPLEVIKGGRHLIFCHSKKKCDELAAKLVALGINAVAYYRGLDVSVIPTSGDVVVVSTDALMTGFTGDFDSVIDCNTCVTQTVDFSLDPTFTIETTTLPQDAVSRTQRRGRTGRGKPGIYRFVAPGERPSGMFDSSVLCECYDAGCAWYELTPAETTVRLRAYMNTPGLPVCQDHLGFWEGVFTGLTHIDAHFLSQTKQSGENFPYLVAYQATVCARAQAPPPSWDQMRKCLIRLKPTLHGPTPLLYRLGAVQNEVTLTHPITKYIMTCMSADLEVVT

SMILES | EC50 [1, 3] [nM] | IC50 [2, 4] [µM] | also measured
O=C(N[C@H]1CCCCC/C=C\[C@@H]2C[C@@]2(C(=O)O)NC(=O)[C@@H]2C[C@@H](OC(=O)N3Cc4cccc(Cl)c4C3)CN2C1=O)OC1CCCC1 [Compound 138] | < 1000 | < 0.1 | –
CC(C)(C)OC(=O)N[C@H]1CCC(F)(F)CC/C=C\[C@@H]2C[C@@]2(C(=O)NS(=O)(=O)C2CC2)NC(=O)[C@@H]2C[C@@H](OC(=O)N3CCc4ccccc4C3)CN2C1=O [Compound 1014] | < 100 | < 0.1 | –
CC(C)(C)OC(=O)N[C@H]1CCCCC/C=C\[C@@H]2C[C@@]2(C(=O)NCCN2CCCCC2)NC(=O)[C@@H]2C[C@@H](OC(=O)N3Cc4cccc(F)c4C3)CN2C1=O [Compound 604] | > 10000 | > 10 | –
CC(C)(C)OC(=O)N[C@H]1CCC(F)(F)CC/C=C\[C@@H]2C[C@@]2(C(=O)O)NC(=O)[C@@H]2C[C@@H](OC(=O)N3Cc4cccc(F)c4C3)CN2C1=O [Compound 1001] | < 10000 | < 0.1 | –
N#CNC(=O)[C@@]12C[C@H]1/C=C\CCCCC[C@H](NC(=O)OC1CCCC1)C(=O)N1C[C@H](OC(=O)N3Cc4cccc(F)c4C3)CC1C(=O)N2 (stereo partly shown) [Compound 637] | > 10000 | < 0.1 | –
CNC(=O)[C@@H](NC(=O)[C@@]12C[C@H]1/C=C\CCCCC[C@H](NC(=O)OC(C)(C)C)C(=O)N1C[C@H](OC(=O)N3Cc4cccc(F)c4C3)C[C@H]1C(=O)N2)c1ccc(F)cc1 [Compound 631] | < 1000 | < 0.1 | –
O=C(N[C@H]1CCCCC/C=C\[C@@H]2C[C@@]2(C(=O)NS(=O)(=O)C2CC2)NC(=O)[C@@H]2C[C@@H](OC(=O)N3Cc4cccc(F)c4C3)CN2C1=O)C(O)C(F)(F)F (single isomer, unassigned) [Compound 247] | < 100 | – | –
CC(C)(C)OC(=O)N[C@H]1CCCCC/C=C\[C@@H]2C[C@@]2(C(=O)NS(=O)(=O)C2(C)CC2)NC(=O)[C@@H]2C[C@@H](OC(=O)N3Cc4ccccc4C3)CN2C1=O [Compound 100, (1S,4R,6S,14S,18R)-1,3-Dihydro-isoindole-2-carboxylic acid 14-tert-butoxycarbonylamino-4-(1-methylcyclopropane-1-sulfonyl)aminocarbonyl-2,15-dioxo-3,16-diaza-tricyclo[14.3.0.0^4,6]nonadec-7-en-18-yl ester] | – | – | EC50 ([1]; Huh-7, 72 h, read-out: Replicon EC50): < 100 nM
CC(C)(C)OC(=O)NC1CCCCC/C=C\[C@H]2C[C@@]2(C(=O)NS(=O)(=O)NCC(F)(F)F)NC(=O)C2CC(OC(=O)N3Cc4cccc(Cl)c4C3)CN2C1=O (single isomer, unassigned) [Compound 226] | < 100 | – | –
O=C(CCC(F)(F)F)N[C@H]1CCCCC/C=C\[C@@H]2C[C@@]2(C(=O)NS(=O)(=O)C2CC2)NC(=O)[C@@H]2CCCN2C1=O [Compound 2139] | – | – | EC50 ([1]; Huh-7, Table 26, read-out: EC50): < 1000 nM
C[C@@H](NC(=O)O[C@@H]1C[C@H]2C(=O)N[C@]3(C(=O)NS(=O)(=O)C4CC4)C[C@H]3/C=C\CCCCC[C@H](NC(=O)OC(C)(C)C)C(=O)N2C1)c1ccc(F)cn1 [Compound 150] | > 10000 | – | –
CC(C)(C)OC(=O)N[C@H]1CCCCC/C=C\[C@@H]2C[C@@]2(C(=O)NS(=O)(=O)c2cccs2)NC(=O)[C@@H]2CCCN2C1=O [Compound 2136] | – | < 10 | –
CC(C)(C)OC(=O)N[C@H]1CCCCC/C=C\[C@@H]2C[C@@]2(C(=O)NCC2CC2)NC(=O)[C@@H]2C[C@@H](OC(=O)N3Cc4ccccc4C3)CN2C1=O [Compound 2501, (1S,4R,6S,14S,18R)-1,3-Dihydro-isoindole-2-carbonyloxylic acid 14-tert-butoxycarbonylamino-4-cyclopropylmethanaminocarbonyl-2,15-dioxo-3,16-diaza-tricyclo[14.3.0.0^4,6]nonadec-7-ene-18-yl ester] | – | – | IC50 ([2]; Table 24): > 10 µM
C[C@@H](NC(=O)O[C@@H]1C[C@H]2C(=O)N[C@]3(C(=O)O)C[C@H]3/C=C\CCCCC[C@H](NC(=O)OC(C)(C)C)C(=O)N2C1)c1ccc(F)cn1 [Compound 148] | – | > 10 | –
CC(C)N(C)S(=O)(=O)NC(=O)[C@@]12C[C@H]1/C=C\CCCCC[C@H](NC(=O)OC(C)(C)C)C(=O)N1CCC[C@H]1C(=O)N2 [Compound 401] | – | < 10 | –
CN(c1ccccc1)S(=O)(=O)NC(=O)[C@@]12C[C@H]1/C=C\CCCCC[C@H](NC(=O)OC(C)(C)C)C(=O)N1CCC[C@H]1C(=O)N2 [Compound 2227] | – | < 10 | –
CC(C)(C)OC(=O)N[C@H]1CCCCC/C=C\[C@@H]2C[C@@]2(C(=O)NS(=O)(=O)c2cccc(F)c2)NC(=O)[C@@H]2CCCN2C1=O [Compound 2113] | – | < 10 | –
COc1ccc(CCNS(=O)(=O)NC(=O)[C@@]23C[C@H]2/C=C\CCCCC[C@H](NC(=O)OC(C)(C)C)C(=O)N2CCC[C@H]2C(=O)N3)cc1 [Compound 413] | – | > 10 | –
CC(C)(C)OC(=O)N[C@H]1CCCCC/C=C\[C@@H]2C[C@@]2(C(=O)NS(=O)(=O)N2CCCC2)NC(=O)[C@@H]2CCCN2C1=O [Compound 2207] | – | < 10 | –
CCOC(=O)[C@@]12C[C@H]1/C=C\CCCCC[C@H](Nc1c(N3CCC3)c(=O)c1=O)C(=O)N1C[C@H](OC(=O)N3Cc4cccc(F)c4C3)C[C@H]1C(=O)N2 [Compound 645] | – | < 0.1 | –
N[C@H]1CCCCC/C=C\[C@@H]2C[C@@]2(C(=O)NS(=O)(=O)Nc2ccc(Cl)cc2)NC(=O)[C@@H]2C[C@@H](OC(=O)N3Cc4ccccc4C3)CN2C1=O [Compound 203] | – | < 1 | –
CCOC(=O)[C@@]12C[C@H]1/C=C\CCCCC[C@H](NC(=O)OC1CCCC1)C(=O)N1C[C@H](OC(=O)N3Cc4ccc(OCCN5CCOCC5)cc4C3)C[C@H]1C(=O)N2 [Compound 129] | – | < 10 | –
CC(C)C[C@@H]1C[C@H]2C(=O)N[C@]3(C(=O)NS(=O)(=O)C4CC4)C[C@H]3/C=C\CCCCC[C@H](NC(=O)OC(C)(C)C)C(=O)N2C1 [Compound 2147, (1S,4R,6S,14S,18R)-tert-Butyl 4-cyclopropylsulfonylaminocarbonyl-2,15-dioxo-3,16-diaza-18-(2-methylpropyl)-tricyclo[14.3.0.0^4,6]nonadec-7-ene-14-yl carbamate] | – | > 10 | –
CC(C)(C)OC(=O)N[C@H]1CCCCC/C=C\[C@@H]2C[C@@]2(C(=O)NS(=O)(=O)NCc2ccccn2)NC(=O)[C@@H]2CCCN2C1=O [Compound 425] | – | > 10 | –
CC(C)(C)OC(=O)N[C@H]1CCCCC/C=C\[C@@H]2C[C@@]2(C(=O)NS(=O)(=O)NCCc2ccc(Cl)cc2)NC(=O)[C@@H]2CCCN2C1=O [Compound 403] | – | < 10 | –
CC(C)(C)OC(=O)N[C@H]1CCCCC/C=C\[C@@H]2C[C@@]2(C(=O)NS(=O)(=O)OCCc2ccccc2)NC(=O)[C@@H]2CCCN2C1=O [Compound 801] | – | < 10 | –
Cc1noc(C)c1S(=O)(=O)NC(=O)[C@@]12C[C@H]1/C=C\CCCCC[C@H](NC(=O)OC(C)(C)C)C(=O)N1CCC[C@H]1C(=O)N2 [Compound 308] | – | > 10 | –
CC(C)(C)OC(=O)N[C@H]1CCCCC/C=C\[C@@H]2C[C@@]2(C(=O)O)NC(=O)C2Cc3ccccc3CN2C1=O (stereo partly drawn) [Compound 2001, (1aS,9S,19aR,Z)-9-(tert-Butoxycarbonyl)-10,18-dioxo-1a,4,5,6,7,8,9,10,12,17,17a,18,19,19a-tetradecahydro-1H-11,14-diaza-bicyclo[13.1.0]hexadeca-1(15), 2-dieno[11,12-b]isoquinoline-19a-carboxylic acid] | – | > 10 | –
